For assay [1], the target named is T1, recombinant guanylate cyclase reporter cell line (Rattus norvegicus, UniProt P19686+P20595).
T1 construct: expressed in transfected cells
T1 sequence (P19686 1-690): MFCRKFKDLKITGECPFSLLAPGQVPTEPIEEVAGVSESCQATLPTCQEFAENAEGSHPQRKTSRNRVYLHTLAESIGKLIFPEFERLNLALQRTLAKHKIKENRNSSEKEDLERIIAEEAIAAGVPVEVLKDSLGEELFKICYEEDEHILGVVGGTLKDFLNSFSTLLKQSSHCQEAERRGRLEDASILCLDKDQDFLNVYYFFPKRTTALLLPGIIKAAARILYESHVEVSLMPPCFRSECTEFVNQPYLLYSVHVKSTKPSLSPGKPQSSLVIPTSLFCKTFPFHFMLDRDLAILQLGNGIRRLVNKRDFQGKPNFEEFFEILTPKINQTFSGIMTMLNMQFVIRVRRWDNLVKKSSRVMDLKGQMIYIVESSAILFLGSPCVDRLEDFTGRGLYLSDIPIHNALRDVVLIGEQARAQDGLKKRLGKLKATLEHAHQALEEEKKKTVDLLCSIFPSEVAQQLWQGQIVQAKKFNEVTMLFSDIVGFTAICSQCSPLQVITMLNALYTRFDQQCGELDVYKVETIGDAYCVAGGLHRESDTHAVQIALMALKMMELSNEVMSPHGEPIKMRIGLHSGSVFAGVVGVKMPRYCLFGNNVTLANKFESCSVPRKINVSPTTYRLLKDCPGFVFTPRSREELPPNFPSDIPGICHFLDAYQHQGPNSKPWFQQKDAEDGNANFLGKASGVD
T1 sequence (P20595 1-619): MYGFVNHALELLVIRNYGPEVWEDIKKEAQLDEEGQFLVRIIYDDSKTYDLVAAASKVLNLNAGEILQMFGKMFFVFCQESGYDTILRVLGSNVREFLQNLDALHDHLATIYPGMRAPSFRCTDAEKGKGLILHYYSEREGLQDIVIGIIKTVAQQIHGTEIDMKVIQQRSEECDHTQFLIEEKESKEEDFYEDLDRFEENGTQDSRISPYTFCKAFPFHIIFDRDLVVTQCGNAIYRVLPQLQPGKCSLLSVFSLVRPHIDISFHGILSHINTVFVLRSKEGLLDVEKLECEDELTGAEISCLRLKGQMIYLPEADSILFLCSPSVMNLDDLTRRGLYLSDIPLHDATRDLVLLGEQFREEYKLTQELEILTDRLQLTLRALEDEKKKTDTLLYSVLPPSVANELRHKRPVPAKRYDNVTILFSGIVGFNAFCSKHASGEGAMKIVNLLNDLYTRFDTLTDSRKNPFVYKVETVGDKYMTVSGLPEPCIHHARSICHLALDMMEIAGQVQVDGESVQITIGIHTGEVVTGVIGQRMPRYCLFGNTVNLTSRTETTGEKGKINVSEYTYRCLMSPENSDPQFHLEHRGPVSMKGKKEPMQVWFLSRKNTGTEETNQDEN
In words: Effect on a recombinant guanylate cyclase reporter cell line. Type of assay: cell-based. The following applies: MEC = minimum effective concentration; in some cases means of individual determinations. In short, it runs like this: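 Values are reported as MEC, sometimes averaged over individual determinations. The test system is a reporter cell line expressing recombinant rat guanylate cyclase.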

Assay [2] concerns the target T2, human phosphodiesterase 5 (PDE 5) (Homo sapiens, UniProt O76074).
T2 construct: PDE 5 preparations are obtained from human platelets by disruption; from tissue; host or cells: human platelets
In words: Inhibition of human phosphodiesterase 5 (PDE 5). Type of assay: biochemical. The following applies: PDE 5 preparation from human platelets; in some cases means of individual determinations. In short, it runs like this: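 IC50 comes from percent inhibition over a 1:3 series with final levels of 4 to 0.0018 μM. Reaction: tritiated cGMP tracer (0.025 μCi) with platelet-derived, Mono Q-purified enzyme, 1 h at room temperature in Tris pH 7.5, under 70% turnover. Read-out by scintillation proximity beads.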

Consider `CONC(=O)c1nc(-c2nn(Cc3ccccc3F)c3ncccc23)nc2c1C(C)(C)C(=O)N2` [Example 79, 2-[1-(2-fluorobenzyl)-1H-pyrazolo[3,4-b]pyridin-3-yl]-N-methoxy-5,5-dimethyl-6-oxo-6,7-dihydro-5H-pyrrolo[2,3-d]pyrimidine-4-carboxamide], for which, in assay [1], the MEC is 0.1 µM. Moreover, in assay [2], the IC50 came out at 30 nM.

As to `CC1(C)C(=O)Nc2nc(-c3nn(Cc4ccccc4F)c4ncccc34)nc(C(=O)NC3CCOC3=O)c21` (racemic) [Example 78, rac-2-[1-(2-fluorobenzyl)-1H-pyrazolo[3,4-b]pyridin-3-yl]-5,5-dimethyl-6-oxo-N-(2-oxotetrahydrofuran-3-yl)-6,7-dihydro-5H-pyrrolo[2,3-d]pyrimidine-4-carboxamide], the MEC in assay [1] was 0.3 µM. In assay [2], this compound came in with an IC50 of 9.3 nM.

For `Cc1nc2c(cc1F)c(-c1nc3c(c(C(N)=O)n1)C(C)(C(F)(F)F)C(=O)N3)nn2Cc1ccccc1F` (single isomer, unassigned; ent-2) [Example 14, ent-2-[5-fluoro-1-(2-fluorobenzyl)-6-methyl-1H-pyrazolo[3,4-b]pyridin-3-yl]-5-methyl-6-oxo-5-(trifluoromethyl)-6,7-dihydro-5H-pyrrolo[2,3-d]pyrimidine-4-carboxamide (enantiomer B)], the MEC in assay [1] worked out at 0.03 µM. In assay [2], this compound registered an IC50 of 130 nM.

For the compound `CC1(C)C(=O)Nc2nc(-c3nn(Cc4ccccc4F)c4ncccc34)nc(C(=O)NCC3(O)CC3)c21` [Example 138, 2-[1-(2-fluorobenzyl)-1H-pyrazolo[3,4-b]pyridin-3-yl]-N-[(1-hydroxycyclopropyl)methyl]-5,5-dimethyl-6-oxo-6,7-dihydro-5H-pyrrolo[2,3-d]pyrimidine-4-carboxamide], the MEC in assay [1] was found to be 1 µM. Besides, in assay [2], the half-inhibitory concentration (IC50) is 21 nM.

On to `CC1(C)C(=O)Nc2nc(-c3nn(Cc4ncccc4F)c4ncc(F)cc34)nc(C(N)=O)c21` [Example 8, 2-{5-fluoro-1-[(3-fluoropyridin-2-yl)methyl]-1H-pyrazolo[3,4-b]pyridin-3-yl}-5,5-dimethyl-6-oxo-6,7-dihydro-5H-pyrrolo[2,3-d]pyrimidine-4-carboxamide], for which the MEC in assay [1] was 2 µM. This compound also showed an IC50 in assay [2] of 81 nM.

Regarding `COCCCNC(=O)c1nc(-c2nn(Cc3ccccc3F)c3ncccc23)nc2c1C(C)(C)C(=O)N2` [Example 90, 2-[1-(2-fluorobenzyl)-1H-pyrazolo[3,4-b]pyridin-3-yl]-N-(3-methoxypropyl)-5,5-dimethyl-6-oxo-6,7-dihydro-5H-pyrrolo[2,3-d]pyrimidine-4-carboxamide], the MEC in assay [1] stood at 0.1 µM. The compound also showed an IC50 in assay [2] of 14 nM.

For `CN(CCO)C(=O)c1nc(-c2nn(Cc3ncccc3F)c3ncc(F)cc23)nc2c1C(C)(C)C(=O)N2` [Example 35], the MEC in assay [1] was 10 µM. In assay [2], this compound came in with an IC50 of 1300 nM.

With `CC1(C)C(=O)Nc2nc(-c3nn(Cc4ccccc4F)c4ncc(F)cc34)nc(C(=O)NC3CC3)c21` [Example 28], the MEC in assay [1] is 0.03 µM. In addition, the IC50 in assay [2] turned out to be 5.2 nM.

With `CC1(C)C(=O)Nc2nc(-c3nn(Cc4ccccc4F)c4ncccc34)nc(C(=O)Nc3cn[nH]c3)c21` [Example 100, 2-[1-(2-fluorobenzyl)-1H-pyrazolo[3,4-b]pyridin-3-yl]-5,5-dimethyl-6-oxo-N-(1H-pyrazol-4-yl)-6,7-dihydro-5H-pyrrolo[2,3-d]pyrimidine-4-carboxamide], in assay [1], the MEC was 0.3 µM. In assay [2], the IC50 came to 4.3 nM.

Regarding `CN(CC1CC1)C(=O)c1nc(-c2nn(Cc3ccccc3F)c3ncc(F)cc23)nc2c1C(C)(C)C(=O)N2` [Example 53], in assay [1], the MEC came to 0.01 µM. In assay [2], this compound showed an IC50 of 110 nM.

Take `Cc1nc2c(cc1F)c(-c1nc3c(c(C(=O)NC4CC4)n1)C(C)(C)C(=O)N3)nn2Cc1cccc(F)c1F` [Example 37]: the MEC in assay [1] came to 0.1 µM. Further, in assay [2], it took 4 nM to reach half-maximal inhibition (IC50).

As for `Cc1nc2c(cc1F)c(-c1nc3c(c(C(N)=O)n1)C(C)(C)C(=O)N3)nn2Cc1ccccc1F` [Example 5, 2-[5-Fluoro-1-(2-fluorobenzyl)-6-methyl-1H-pyrazolo[3,4-b]pyridin-3-yl]-5,5-dimethyl-6-oxo-6,7-dihydro-5H-pyrrolo[2,3-d]pyrimidine-4-carboxamide], the MEC in assay [1] amounted to 0.3 µM. Besides, in assay [2], half-maximal inhibition (IC50) was put at 86 nM.

Turning to `Cc1nc2c(cc1F)c(-c1nc3c(c(C(N)=O)n1)C(C)(C)C(=O)N3)nn2Cc1ncccc1F` [Example 7, 2-{5-Fluoro-1-[(3-fluoropyridin-2-yl)methyl]-6-methyl-1H-pyrazolo[3,4-b]pyridin-3-yl}-5,5-dimethyl-6-oxo-6,7-dihydro-5H-pyrrolo[2,3-d]pyrimidine-4-carboxamide], the MEC in assay [1] was 3 µM. In assay [2], the IC50 amounted to 130 nM.

Take `Cn1cnc(NC(=O)c2nc(-c3nn(Cc4ccccc4F)c4ncccc34)nc3c2C(C)(C)C(=O)N3)n1` [Example 109, 2-[1-(2-fluorobenzyl)-1H-pyrazolo[3,4-b]pyridin-3-yl]-5,5-dimethyl-N-(1-methyl-1H-1,2,4-triazol-3-yl)-6-oxo-6,7-dihydro-5H-pyrrolo[2,3-d]pyrimidine-4-carboxamide]: the MEC in assay [1] is 0.3 µM. The midpoint of inhibition in assay [2], the IC50, lay at 39 nM.

`CCCCNC(=O)c1nc(-c2nn(Cc3ccccc3F)c3ncccc23)nc2c1C(C)(C)C(=O)N2` [Example 121, N-butyl-2-[1-(2-fluorobenzyl)-1H-pyrazolo[3,4-b]pyridin-3-yl]-5,5-dimethyl-6-oxo-6,7-dihydro-5H-pyrrolo[2,3-d]pyrimidine-4-carboxamide]: the MEC in assay [1] was determined as 0.3 µM. Also, 27 nM corresponded to half-maximal inhibition in assay [2] (IC50).

Take `CC1(C)C(=O)Nc2nc(-c3nn(Cc4ccccc4F)c4cc(Cl)ccc34)nc(C(=O)NCC3CC3)c21` [Example 42, 2-[6-Chloro-1-(2-fluorobenzyl)-1H-indazol-3-yl]-N-(cyclopropylmethyl)-5,5-dimethyl-6-oxo-6,7-dihydro-5H-pyrrolo[2,3-d]pyrimidine-4-carboxamide]: in assay [1], the MEC amounted to 0.3 µM. It took 74 nM to reach half-maximal inhibition in assay [2] (IC50).

Turning to `CN(CC1CC1)C(=O)c1nc(-c2nn(Cc3ccccc3F)c3cc(Cl)ccc23)nc2c1C(C)(C)C(=O)N2` [Example 47], in assay [1], the MEC was 0.03 µM. In assay [2], this compound showed an IC50 of 730 nM.

As for `Cc1nc2c(cc1F)c(-c1nc3c(c(C(N)=O)n1)C(C)(C(F)(F)F)C(=O)N3)nn2Cc1c(F)ccc(F)c1F` (single isomer, unassigned; ent-2) [Example 17, ent-2-[5-Fluoro-6-methyl-1-(2,3,6-trifluorobenzyl)-1H-pyrazolo[3,4-b]pyridin-3-yl]-5-methyl-6-oxo-5-(trifluoromethyl)-6,7-dihydro-5H-pyrrolo[2,3-d]pyrimidine-4-carboxamide (enantiomer B)], the MEC in assay [1] was 0.03 µM. Further, in assay [2], the IC50 amounted to 280 nM.

For `CCCCCNC(=O)c1nc(-c2nn(Cc3ccccc3F)c3ncccc23)nc2c1C(C)(C)C(=O)N2` [Example 131, 2-[1-(2-Fluorobenzyl)-1H-pyrazolo[3,4-b]pyridin-3-yl]-5,5-dimethyl-6-oxo-N-pentyl-6,7-dihydro-5H-pyrrolo[2,3-d]pyrimidine-4-carboxamide], in assay [1], the MEC came to 0.3 µM. 38 nM corresponded to half-maximal inhibition in assay [2] (IC50).

For the compound `Cn1nccc1NC(=O)c1nc(-c2nn(Cc3ccccc3F)c3ncccc23)nc2c1C(C)(C)C(=O)N2` [Example 67, 2-[1-(2-fluorobenzyl)-1H-pyrazolo[3,4-b]pyridin-3-yl]-5,5-dimethyl-N-(1-methyl-1H-pyrazol-5-yl)-6-oxo-6,7-dihydro-5H-pyrrolo[2,3-d]pyrimidine-4-carboxamide], in assay [1], the MEC came out at 0.3 µM. The same compound yielded an IC50 in assay [2] of 2.6 nM.

As usually defined, the IC50 is the concentration that gives 50% inhibition.
